Legend:
[1] = test system: MDA-MB-231, MDA-MB-468, and LM2 cells; test: Colony formation of triple-negative breast cancer lines, crystal violet staining; format: cell-based, human
Method: FIG. 6. Targeting AdipoR1 signaling in human TNBC. A) MDA-MB-231, MDA-MB-468 and MCF7 cells were infected with lentiviruses inducibly expressing either GFP or GFP-ADIPOR1. After neomycin selection, the stably transfected cells were treated with DMSO or doxycycline (DOX). The induced GFP or GFP-AdipoR1 was determined by western blot in three cell lines, n=3. B) The proliferation ability of GFP or GFP-ADIPOR1 inducible cell lines were determined by cell counting, n=3, Student's t test was used for statistical analysis. **P<0.01; *P<0.05. Error bars represent sd. C) The GFP or GFP-ADIPOR1 inducible cell lines were seeded in 6-well plates at the concentration of 4×10^4 living cells per well. The cells were then treated with DMSO or doxycycline. The cell survival was shown six days after doxycycline treatment by crystal violet staining. D) Quantification of crystal violet staining was determined as described in materials section. n=4, Student's t test was used for statistical analysis. **P<0.01; *P<0.05. Error bars represent sd. […] F) Quantification of crystal violet staining was determined as described in materials section. n=4, Student's t test was used for statistical analysis. **P<0.01; *P<0.05. […] They were treated with either PBS or AdipoRon (50 mg/kg) for 10 times, and the tumor size (G) and animal survival (H) was monitored. Tumor growth was measured two weeks after inoculation (n=7). […]

[2] = cited from earlier work
[3] = mice treated with 50 mg/kg AdipoRon; cited from earlier work
LM2 cells = test: LM2 cell fat pad xenograft in nude mice, treatment assay; format: in vivo
Method: FIG. 6. Targeting AdipoR1 signaling in human TNBC. A) MDA-MB-231, MDA-MB-468 and MCF7 cells were infected with lentiviruses inducibly expressing either GFP or GFP-ADIPOR1. After neomycin selection, the stably transfected cells were treated with DMSO or doxycycline (DOX). The induced GFP or GFP-AdipoR1 was determined by western blot in three cell lines, n=3. B) The proliferation ability of GFP or GFP-ADIPOR1 inducible cell lines were determined by cell counting, n=3, Student's t test was used for statistical analysis. **P<0.01; *P<0.05. Error bars represent sd. C) The GFP or GFP-ADIPOR1 inducible cell lines were seeded in 6-well plates at the concentration of 4×10^4 living cells per well. The cells were then treated with DMSO or doxycycline. The cell survival was shown six days after doxycycline treatment by crystal violet staining. D) Quantification of crystal violet staining was determined as described in materials section. n=4, Student's t test was used for statistical analysis. **P<0.01; *P<0.05. Error bars represent sd. E) MDA-MB-231, MDA-MB-468, and LM2 cells were seeded in 6-well plates at the concentration of 200 cells per well. […] F) Quantification of crystal violet staining was determined as described in materials section. n=4, Student's t test was used for statistical analysis. **P<0.01; *P<0.05. […] They were treated with either PBS or AdipoRon (50 mg/kg) for 10 times, and the tumor size (G) and animal survival (H) was monitored. Tumor growth was measured two weeks after inoculation (n=7). […]
FIG. 14. […] They were treated with either PBS or AdipoRon (50 mg/kg and 100 mg/kg, respectively) for 10 times, and the tumor size was monitored. Tumor growth was measured two weeks after inoculation (n=8). […]
Animal experiments. […] Tumor growth was monitored every other day two weeks after inoculation. […] They were treated with either PBS or AdipoRon (50 mg/kg) for 10 times, and the tumor size (G) and animal survival (H) was monitored. Tumor growth was measured two weeks after inoculation.

SET1B = SET1B protein level by western blot after AdipoRON treatment; format: cell-based, human; settings: MDA-MB-231 cells, various concentrations for 24 hours
Method: FIG. 13. Depletion of AdipoR1 by CRISPR-CAS9 partially rescued cell death induced by SET1B depletion. A) Design of CRIPSR-Cas9 targeting ADIPOR1 gene locus. B) PCR was performed for genotyping of AdipoR1 wildtype and deleted cells. C) Total RNA was extracted from AdipoR1-WT and AdipoR1-KO cells and subjected to RNA-seq, three replicates. Representative tracks of AdipoR1 gene are shown. D) SET1B was further knocked down in ADIPOR1-WT and ADIPOR1-KO cells, respectively. After puromycin selection for 48 hours, 1×10^5 cells were seeded in 6-well plate, the cell viability of SET1B knocked down cells was determined by cell counting. E) The cells from panel C were seeded in 6-well plate (1×10^4) and grown for one week before crystal violet staining. F) Quantification of crystal violet staining was determined as described in materials section. n=4, Student's t test was used for statistical analysis. **P<0.01; *P<0.05. Error bars represent sd. […] H) Cell morphology of GFP or GFP-AdipoR1 inducible cell lines after DMSO or Dox treatment, n=3. I) MCF7 cells were seeded in 6-well plates at the concentration of 500 cells per well. The cells were treated with either DMSO or AdipoRON (10 μM) for three weeks, and the colonies were stained with crystal violet. J) MDA-MB-231 cells were treated with various concentrations of AdipoRON for 24 hours. The protein level of SET1B was determined by western blot. […]

Structure (SMILES): O=C(COc1ccc(C(=O)c2ccccc2)cc1)NC1CCN(Cc2ccccc2)CC1 [AdipoRon]
- anti-tumor effect in vitro ([1]; 10 μM): dramatic anti-tumor effect
- colony formation ability ([1]; AdipoRON 10 μM for three weeks, multiple triple-negative breast cancer lines, 200 cells per well): significantly inhibited
- toxicity in vivo [2]: low toxicity
- plasma concentration [3]: 11.6 µM
- drug effect (tumor size) by intraperitoneal injection (LM2 cells; intraperitoneal injection, 50 mg/kg and 100 mg/kg, 10 times): consistent result
- tumor size / tumor growth (LM2 cells; oral 50 mg/kg, started 12 days after transplantation): significantly reduced
- animal survival / lifespan (LM2 cells; oral 50 mg/kg, started 12 days after transplantation, 50 mg/kg): significantly increased
- SET1B protein level (SET1B): does not affect

Source: US11059878B2, “Therapeutic targeting of SET1B/compass pathway for treating cancers” (Northwestern University, priority 2016, dated 2021)
